“Also recorded” adds a separate entry of the source. d = 2'-deoxy (DNA); m = 2'-O-methyl
Legend:
c-raf mRNA = assay: Northern blot analysis of c-raf mRNA expression in T24 cells; type: cell-based, human
Source text: Chimeric oligonucleotides having SEQ ID NO:7 were designed using the Genbank c-raf sequence HUMRAFR (Genbank listing x03484), synthesized and tested for inhibition of c-raf mRNA expression in T24 bladder carcinoma cells using a Northern blot assay. These chimeric oligonucleotides have central “gap” regions of 6, 8 or 10 deoxynucleotides flanked by two regions of 2′-O-methyl modified nucleotides, and are shown in Table 10. Backbones were uniformly phosphorothioate. […] These oligonucleotides are preferred.
The human urinary bladder cancer cell line T24 was obtained from the American Type Culture Collection (Rockville, Md.). Cells were grown in McCoy's 5A medium with L-glutamine (GIBCO-BRL, Gaithersburg, Md.), supplemented with 10% heat-inactivated fetal calf serum and 50 U/ml each of penicillin and streptomycin. Cells were seeded on 100 mm plates. When they reached 70% confluency, they were treated with oligonucleotide. Plates were washed with 10 ml prewarmed PBS and 5 ml of OptiMEM reduced-serum medium containing 2.5 μl DOTMA. Oligonucleotide with lipofectin was then added to the desired concentration. After 4 hours of treatment, the medium was replaced with McCoy's medium. Cells were harvested 24 to 72 hours after oligonucleotide treatment and RNA was isolated using a standard CsCl purification method. [Kingston in Current Protocols in Molecular Biology, F. M. Ausubel, R. Brent, R. E. Kingston, D. D. Moore, J. A. Smith, J. G. Seidman and K. Strahl, Eds., John Wiley and Sons, New York.] Total RNA was isolated by centrifugation of cell lysates over a CsCl cushion. RNA samples were electrophoresed through 1.2% agarose-formaldehyde gels and transferred to hybridization. membranes by capillary diffusion over a 12-14 hour period. The RNA was cross-linked to the membrane by exposure to UV light in a Stratalinker (Stratagene, La Jolla, Calif.) and hybridized to random-primed ^32P-labeled c-raf cDNA probe (obtained from ATCC) or G3PDH probe as a control. RNA was quantitated using a Phosphorimager (Molecular Dynamics, Sunnyvale, Calif.).

ras mRNA = assay: Northern blot analysis of ras expression in T24 cells; type: cell-based, human; parameters: inhibition of ras expression / decrease of ras mRNA: concentration or dose not given beside the values; settings: for inhibition of ras expression: T24 cells (activated codon-12); for inhibition of ras expression / decrease of ras mRNA: T24 cells, Northern blot
Description: (§1) The human urinary bladder cancer cell line T24 was obtained from the American Type Culture Collection (Rockville Md.). Cells were grown in McCoy's 5A medium with L-glutamine (GIBCO-BRL, Gaithersburg, Md.), supplemented with 10% heat-inactivated fetal calf serum and 50 U/ml each of penicillin and streptomycin. Cells were seeded on 100 mm plates. When they reached 70% confluency, they were treated with oligonucleotide. Plates were washed with 10 ml prewarmed PBS and 5 ml of OptiMEM (GIBCO) reduced-serum medium containing 2.5 μl DOTMA. Oligonucleotide was then added to the desired concentration. After 4 hours of treatment, the medium was replaced with McCoy's medium. Cells were harvested 48 hours after oligonucleotide treatment and RNA was isolated using a standard CsCl purification method. [Kingston in Current Protocols in Molecular Biology, F. M. Ausubel, R. Brent, R. E. Kingston, D. D. Moore, J. A. Smith, J. G. Seidman and K. Strahl, Eds., John Wiley and Sons, New York.] The human epithelioid carcinoma cell line HeLa 229 was obtained from the American Type Culture Collection (Bethesda, Md.). HeLa cells were maintained as monolayers on 6-well plates in Dulbecco's Modified Eagle's medium (DMEM) supplemented with 10% fetal bovine serum and 100 U/ml penicillin. Treatment with oligonucleotide and isolation of RNA were essentially as described above for T24 cells.
Northern hybridization: 10 μg of each RNA was electrophoresed on a 1.2% agarose/formaldehyde gel and transferred overnight to GeneBind 45 nylon membrane (Pharmacia LKB, Piscataway, N.J.) using standard methods. [Kingston in Current Protocols in Molecular Biology, F. M. Ausubel, R. Brent, R. E. Kingston, D. D. Moore, J. A. Smith, J. G. Seidman and K. Strahl, Eds., John Wiley and Sons, New York.] RNA was UV-crosslinked to the membrane. Double-stranded ^32P-labeled probes were synthesized using the Prime a Gene labeling kit (Promega, Madison, Wis.). The ras probe was a SalI-NheI fragment of a cDNA clone of the activated (mutant) H-ras mRNA having a GGC-to-GTC mutation at codon-12. The control probe was G3PDH. Blots were prehybridized for 15 minutes at 68° C. with the QuickHyb hybridization solution (Stratagene, La Jolla, Calif.). The heat-denatured radioactive probe (2.5×10^6 counts/2 ml hybridization solution) mixed with 100 μl of 10 mg/ml salmon sperm DNA was added and the membrane was hybridized for 1 hour at 68° C. The blots were washed twice for 15 minutes at room temperature in 2×SSC/0.1% SDS and once for 30 minutes at 60° C. with 0.1×SSC/0.1%SDS. Blots were autoradiographed and the intensity of signal was quantitated using an ImageQuant PhosphorImager (Molecular Dynamics, Sunnyvale, Calif.). Northern blots were first hybridized with the ras probe, then stripped by boiling for 15 minutes in 0.1×SSC/0.1%SDS and rehybridized with the control G3PDH probe to check for correct sample loading.

[1] = test system: ras mRNA (wild-type H-ras codon-12); assay: Northern blot analysis of ras expression in HeLa cells; type: cell-based, human; settings: HeLa cells (wild-type H-ras codon-12)
Description: as §1, with “The human epithelioid carcinoma cell line HeLa 229 was obtained from the American Type Culture Collection (Bethesda, Md.). HeLa cells were maintained as monolayers on 6-well plates in Dulbecco's Modified Eagle's medium (DMEM) supplemented with 10% fetal bovine serum and 100 U/ml penicillin. Treatment with oligonucleotide and isolation of RNA were essentially as described above for T24 cells.” left out
Northern hybridization: 10 μg of each RNA was electrophoresed on a 1.2% agarose/formaldehyde gel and transferred overnight to GeneBind 45 nylon membrane (Pharmacia LKB, Piscataway, N.J.) using standard methods. […] Blots were autoradiographed and the intensity of signal was quantitated using an ImageQuant PhosphorImager (Molecular Dynamics, Sunnyvale, Calif.). […]

T24 cancer cell = assay: Inhibition of proliferation of cancer cells; type: cell-based, human; settings: 100 nM oligonucleotide concentration
Description: Cells were cultured and treated with oligonucleotide essentially as described in Example 27. Cells were seeded on 60 mm plates and were treated with oligonucleotide in the presence of DOTMA when they reached 70% confluency. Time course experiment: On day 1, cells were treated with a single dose of oligonucleotide at a final concentration of 100 nM. The growth medium was changed once on day 3 and cells were counted every day for 5 days, using a counting chamber. Dose-response experiment: Various concentrations of oligonucleotide (10, 25, 50, 100 or 250 nM) were added to the cells and cells were harvested and counted 3 days later. Oligonucleotides 2570, 3985 and 4690 were tested for effects on T24 cancer cell proliferation. EXAMPLE 29

[2] = test system: mutant (activated) H-ras RNA; type: cell-based, human
[3] = test system: RNA complement “Y” strand ribo(3′GAG CAU GGY AAG GCC AGG5′); assay: Base-pair specificity: single base mismatches and bulge, thermal melting; type: binding; settings: single base-pair mismatches and a bulge
Description: The ability of the 2′-modified oligonucleotides to hybridize to their complementary RNA or DNA sequences was determined by thermal melting analysis. The RNA complement was synthesized from T7 RNA polymerase and a template-promoter of DNA synthesized with an Applied Biosystems, Inc. 380B RNA species was purified by ion exchange using FPLC (LKB Pharmacia, Inc.). Natural antisense oligonucleotides or those containing 2′-modifications at specific locations were added to either the RNA or DNA complement at stoichiometric concentrations and the absorbance (260 nm) hyperchromicity upon duplex to random coil transition was monitored using a Gilford Response II spectrophotometer. These measurements were performed in a buffer of 10 mM Na-phosphate, pH 7.4, 0.1 mM EDTA, and NaCl to yield an ionic strength of 10 either 0.1 M or 1.0 M. Data was analyzed by a graphic representation of 1/Tm vs ln[Ct], where [Ct] was the total oligonucleotide concentration. From this analysis the thermodynamic parameters were determined. Based upon the information gained concerning the stability of the duplex of heteroduplex formed, the placement of modified pyrimidine into oligonucleotides were assessed for their effects on helix stability.
Base-pair specificity of 2′-deoxy-2′-fluoro modified oligonucleotides with the RNA complement (a “Y” strand) was determined by effecting single base-pair mismatches and a bulge. […]

Substance: TCCCGCCTGTGACATGCATT (2'-O-methyl P=S chimera, 8-deoxy gap, chemistry not fully specified) [ISIS 6717]
- inhibition of c-raf mRNA expression (c-raf mRNA): greater than 90%

Substance: TTCTCGCCCGCTCCTCCTCC (2'-O-methyl P=S chimera, chemistry not fully specified) [ISIS 7856]
- inhibition of c-raf mRNA expression (c-raf mRNA): > 70%

Substance: TCCGTCATCGCTCCTCAGGG [Oligonucleotide 2503]
- inhibition of ras expression (ras mRNA): inhibited ras expression in T24 cells
- inhibition of ras expression / decrease of ras mRNA (ras mRNA; listed as 2503): 71%
- inhibition of ras expression [1]: inhibited ras expression in HeLa cells

Substance: CdCdAd CdAdCd CdGdAd CdGdGd CdGdCd CdCd [Oligonucleotide 2570, reference compound]
- inhibition of T24 cell proliferation relative to inhibition of HeLa cells (T24 cancer cell): four times as severe
- inhibition of ras-luciferase activity [2]: dose-dependent inhibition of ras-luciferase activity
- selectivity toward the mutant form of ras-luciferase as compared to the normal form [2]: approximate threefold selectivity
- inhibition of ras expression (ras mRNA): inhibited ras expression in T24 cells; also recorded: decreased ras mRNA levels in T24 cells
- inhibition of ras expression / decrease of ras mRNA (ras mRNA): 82%
- inhibition of ras expression [1]: did not inhibit ras expression in HeLa cells

Substance: TTCTCCTCCTCCCCTGGCAG (sugars from the 5' end m12 d8, all phosphorothioate, T or U not given here) [ISIS 7854]
- inhibition of c-raf mRNA expression (c-raf mRNA): > 70%

Substance: deoxy(CUC GUACCUUUCCGG UCC) (CUCGUACCUUUCCGGUCC; 14 2'-deoxy-2'-fluoro nucleotides, chemistry not fully specified)
- specificity of duplex formation with the RNA complement [3]: greater specificity than a like-sequenced unmodified oligonucleotide
